Square brackets hold non-standard residues; d marks the D form. Ends that are not written are not given here.
What was measured:
[1] = Immunization of rabbits with KLVFFA peptide, antibody titers; type: in vivo; settings: rabbits immunized, KLH-conjugated peptide, FIG. 7
Experimental: Rabbits were immunized with all-D or all-L KLVFFA.
Standard assays for fibrillogenesis were used to evaluate activity, such as those based on Thioflavine T, circular dichroism and solubility.
Rabbits were immunized with D- or L-Aβ (16-21) peptide. Antibodies raised were tested for their antifibrillogenic activities by ThT assay and by electron microscopy (EM).

[2] = test system: transgenic mouse model of brain amyloidosis; settings: vaccinated transgenic mice; cited from earlier work

| Substance | production of antibodies (antibody titers) [1] | production of antibodies (antibody titers) ([1]; listed as Aβ 16-21 (all-D)) | formation of β-amyloid plaque, astrogliosis and neuritic dystrophy [2] |
| --- | --- | --- | --- |
| Aβ (16-21, all-D) ([dK][dL][dV][dF][dF][dA]) [all-D KLVFFA, KLVFFA] | causes production of antibodies | antibodies can be raised |  |
| human aggregated all-L peptide: human aggregated all-L Aβ peptide used as immunogen in the vaccine of Schenk et al. (1999) |  |  | prevented the formation of β-amyloid plaque, astrogliosis and neuritic dystrophy |
